Several values for one entry are separate records, joined by “and”; a condition that tells them apart may be missing. Identical values can stand only once.
What was measured:
HCT116 cells [1] = experiment: Limiting dilution analysis of sphere formation, HCT116; assay type: cell-based, human
Method: (§1) One million HCT116 and DLD-1 cells were seeded onto 60-mm plates and treated with vehicle (DMSO) or compounds (0.1, 0.3 or 1.0 μM) for either 3 or 4 days. After washing off the compounds, the cells were dissociated to single cells in serum-free DMEM/F12 medium (Thermo Fisher Scientific) containing B27 (Thermo Fisher Scientific), 20 ng ml^−1 epidermal growth factor (EGF; Thermo Fisher Scientific), 10 ng ml^−1 basic fibroblast factor (bFGF; Thermo Fisher Scientific), 5 μg ml^−1 insulin (Thermo Fisher Scientific), 0.4% bovine serum albumin (Sigma-Aldrich) and 2 mM L-glutamine (Thermo Fisher Scientific). One hundred, 10 or 1 viable (determined by trypan-blue dye exclusion) cells were seeded into each well of a 96-well U-bottom PrimeSurface plate (Sumitomo Bakelite). Ten days later, the number of wells showing sphere formation was counted. The frequency of sphere-forming cells was calculated using ELDA software (http://bioinf.wehi.edu.au/software/elda/index.html) provided by the Walter and Eliza Hall Institute (Fig. 5c; Supplementary Table 2). Experiments were performed in triplicate and repeated at least two times.

JNK2 = JNK2 (Homo sapiens, UniProt P45984); experiment: Kinase selectivity profiling, c-Jun kinase 2; assay type: biochemical; details: read-out: Percentage inhibition of JNK2
Method: (§2) The selectivity of compounds against a panel of 50 human protein kinases was assessed using a non-radiometric assay.

CDK2/CycA2 = CDK2/CycA2 (Homo sapiens, UniProt P24941); experiment: Kinase selectivity profiling, Cyclin-dependent kinase 2/cyclin A2; assay type: biochemical; details: 0.1 µM inhibitor, ATP at Km; 0.1 µM
Method: as §2

MET = MET (Homo sapiens, UniProt P08581); experiment: Kinase selectivity profiling, Hepatocyte growth factor receptor; assay type: biochemical; details: read-out: Percentage inhibition of MET
Sequence of MET (P08581 25-1390): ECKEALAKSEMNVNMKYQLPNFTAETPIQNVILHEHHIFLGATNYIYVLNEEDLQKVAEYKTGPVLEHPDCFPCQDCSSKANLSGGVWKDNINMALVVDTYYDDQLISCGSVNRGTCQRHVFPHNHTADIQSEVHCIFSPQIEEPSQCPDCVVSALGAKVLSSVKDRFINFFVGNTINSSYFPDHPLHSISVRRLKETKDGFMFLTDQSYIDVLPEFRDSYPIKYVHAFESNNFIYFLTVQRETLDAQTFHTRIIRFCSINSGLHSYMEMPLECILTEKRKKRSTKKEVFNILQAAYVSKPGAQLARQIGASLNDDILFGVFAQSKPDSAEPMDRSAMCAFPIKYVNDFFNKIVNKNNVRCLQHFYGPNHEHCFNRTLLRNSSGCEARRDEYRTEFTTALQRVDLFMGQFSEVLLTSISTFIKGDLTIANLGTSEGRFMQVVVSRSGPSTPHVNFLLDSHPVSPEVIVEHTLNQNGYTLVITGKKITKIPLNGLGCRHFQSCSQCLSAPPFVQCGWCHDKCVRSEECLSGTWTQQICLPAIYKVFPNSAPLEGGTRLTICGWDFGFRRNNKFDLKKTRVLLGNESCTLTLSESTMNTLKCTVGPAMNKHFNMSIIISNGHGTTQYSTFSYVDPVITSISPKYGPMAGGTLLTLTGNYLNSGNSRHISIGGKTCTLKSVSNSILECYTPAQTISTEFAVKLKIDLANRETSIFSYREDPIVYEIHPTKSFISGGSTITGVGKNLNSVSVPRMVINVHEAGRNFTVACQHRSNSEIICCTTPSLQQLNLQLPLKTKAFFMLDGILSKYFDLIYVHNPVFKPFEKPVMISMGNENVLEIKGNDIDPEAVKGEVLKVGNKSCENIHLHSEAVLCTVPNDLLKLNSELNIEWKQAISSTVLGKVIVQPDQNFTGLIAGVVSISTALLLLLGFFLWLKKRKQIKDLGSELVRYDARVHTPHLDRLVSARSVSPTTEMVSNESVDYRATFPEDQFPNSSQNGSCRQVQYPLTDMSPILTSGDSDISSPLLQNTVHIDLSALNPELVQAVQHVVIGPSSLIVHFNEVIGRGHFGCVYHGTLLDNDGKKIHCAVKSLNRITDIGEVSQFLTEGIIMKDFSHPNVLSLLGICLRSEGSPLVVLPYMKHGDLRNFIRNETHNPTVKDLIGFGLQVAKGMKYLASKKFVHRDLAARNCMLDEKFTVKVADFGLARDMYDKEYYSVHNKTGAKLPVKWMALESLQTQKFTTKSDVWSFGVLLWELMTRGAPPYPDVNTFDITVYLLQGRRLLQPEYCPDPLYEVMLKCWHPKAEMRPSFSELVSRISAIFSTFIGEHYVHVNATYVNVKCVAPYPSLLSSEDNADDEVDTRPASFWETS
Method: as §2

[2] = test system: patient-derived colorectal cancer spheroids #6; experiment: ATP production of patient-derived spheroid #6; assay type: cell-based; details: Homo sapiens, 72 h; spheroid #6, 3 days
Method: Cells were seeded at a density of 3,000 cells per well in 96-well plates. Twenty-four hours after seeding, the cells were exposed to serially diluted compounds (0.003, 0.01, 0.03, 0.1, 0.3, 1, 3 and 10 μM) and incubated for 72 h (Fig. 3a). Patient-derived colorectal cancer spheroids were dissociated into single cells with Accutase (Nacalai Tesque) and seeded at a density of 3,000 cells per well into Ultra-Low attachment multiwall 96-well plates (Corning; Fig. 6d). ATP was measured with a CellTiter-Glo Luminescent Cell Viability Assay kit (Promega). Experiments were performed in triplicate and repeated at least two times.

TYRO3 = TYRO3 (Homo sapiens, UniProt Q06418); experiment: Kinase selectivity profiling, Tyro3 receptor tyrosine kinase; assay type: biochemical; details: read-out: Percentage inhibition of TYRO3
Sequence of TYRO3 (Q06418 41-890): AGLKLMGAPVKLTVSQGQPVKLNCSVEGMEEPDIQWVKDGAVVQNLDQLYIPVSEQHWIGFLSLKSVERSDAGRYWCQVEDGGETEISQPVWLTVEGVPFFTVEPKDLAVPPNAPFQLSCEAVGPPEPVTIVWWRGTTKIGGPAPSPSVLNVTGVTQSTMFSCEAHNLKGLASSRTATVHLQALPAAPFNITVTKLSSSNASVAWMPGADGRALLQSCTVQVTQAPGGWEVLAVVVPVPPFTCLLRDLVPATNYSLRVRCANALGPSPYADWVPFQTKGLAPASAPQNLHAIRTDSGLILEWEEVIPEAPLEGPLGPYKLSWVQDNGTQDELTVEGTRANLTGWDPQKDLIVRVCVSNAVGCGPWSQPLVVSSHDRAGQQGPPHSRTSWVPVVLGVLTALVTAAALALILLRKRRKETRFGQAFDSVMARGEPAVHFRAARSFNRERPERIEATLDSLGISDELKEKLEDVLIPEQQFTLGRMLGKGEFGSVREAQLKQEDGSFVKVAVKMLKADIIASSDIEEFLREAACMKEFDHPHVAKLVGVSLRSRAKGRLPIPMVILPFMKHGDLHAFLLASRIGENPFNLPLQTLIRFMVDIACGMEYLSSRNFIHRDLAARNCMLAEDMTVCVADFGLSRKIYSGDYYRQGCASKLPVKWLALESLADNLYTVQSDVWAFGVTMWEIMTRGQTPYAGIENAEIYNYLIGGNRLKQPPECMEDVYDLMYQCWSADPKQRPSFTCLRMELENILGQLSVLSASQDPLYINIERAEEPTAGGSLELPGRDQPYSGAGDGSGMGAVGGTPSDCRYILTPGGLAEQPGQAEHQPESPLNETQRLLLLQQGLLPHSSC
Method: as §2

CK1ε = CK1ε (Homo sapiens, UniProt P49674); experiment: Kinase selectivity profiling, Casein kinase 1ε; assay type: biochemical; details: read-out: Percentage inhibition of CK1ε
Sequence of CK1ε (P49674 whole entry): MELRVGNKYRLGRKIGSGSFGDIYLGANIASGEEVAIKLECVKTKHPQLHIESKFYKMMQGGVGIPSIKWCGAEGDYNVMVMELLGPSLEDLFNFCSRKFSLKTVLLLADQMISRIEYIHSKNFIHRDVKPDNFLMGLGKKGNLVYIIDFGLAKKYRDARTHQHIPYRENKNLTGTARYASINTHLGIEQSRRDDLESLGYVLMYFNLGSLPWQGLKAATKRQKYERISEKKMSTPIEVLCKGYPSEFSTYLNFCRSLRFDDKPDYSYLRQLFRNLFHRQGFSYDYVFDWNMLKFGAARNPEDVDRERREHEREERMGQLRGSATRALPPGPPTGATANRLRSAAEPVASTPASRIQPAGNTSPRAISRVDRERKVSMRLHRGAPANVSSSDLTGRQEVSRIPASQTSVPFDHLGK
Method: as §2

DLD-1 cells = experiment: Limiting dilution analysis of sphere formation, DLD-1; assay type: cell-based, human
Method: as §1

PYK2 = PYK2 (Homo sapiens, UniProt Q14289); experiment: Kinase selectivity profiling, Proline-rich tyrosine kinase 2; assay type: biochemical; details: read-out: Percentage inhibition of PYK2
Sequence of PYK2 (Q14289 whole entry): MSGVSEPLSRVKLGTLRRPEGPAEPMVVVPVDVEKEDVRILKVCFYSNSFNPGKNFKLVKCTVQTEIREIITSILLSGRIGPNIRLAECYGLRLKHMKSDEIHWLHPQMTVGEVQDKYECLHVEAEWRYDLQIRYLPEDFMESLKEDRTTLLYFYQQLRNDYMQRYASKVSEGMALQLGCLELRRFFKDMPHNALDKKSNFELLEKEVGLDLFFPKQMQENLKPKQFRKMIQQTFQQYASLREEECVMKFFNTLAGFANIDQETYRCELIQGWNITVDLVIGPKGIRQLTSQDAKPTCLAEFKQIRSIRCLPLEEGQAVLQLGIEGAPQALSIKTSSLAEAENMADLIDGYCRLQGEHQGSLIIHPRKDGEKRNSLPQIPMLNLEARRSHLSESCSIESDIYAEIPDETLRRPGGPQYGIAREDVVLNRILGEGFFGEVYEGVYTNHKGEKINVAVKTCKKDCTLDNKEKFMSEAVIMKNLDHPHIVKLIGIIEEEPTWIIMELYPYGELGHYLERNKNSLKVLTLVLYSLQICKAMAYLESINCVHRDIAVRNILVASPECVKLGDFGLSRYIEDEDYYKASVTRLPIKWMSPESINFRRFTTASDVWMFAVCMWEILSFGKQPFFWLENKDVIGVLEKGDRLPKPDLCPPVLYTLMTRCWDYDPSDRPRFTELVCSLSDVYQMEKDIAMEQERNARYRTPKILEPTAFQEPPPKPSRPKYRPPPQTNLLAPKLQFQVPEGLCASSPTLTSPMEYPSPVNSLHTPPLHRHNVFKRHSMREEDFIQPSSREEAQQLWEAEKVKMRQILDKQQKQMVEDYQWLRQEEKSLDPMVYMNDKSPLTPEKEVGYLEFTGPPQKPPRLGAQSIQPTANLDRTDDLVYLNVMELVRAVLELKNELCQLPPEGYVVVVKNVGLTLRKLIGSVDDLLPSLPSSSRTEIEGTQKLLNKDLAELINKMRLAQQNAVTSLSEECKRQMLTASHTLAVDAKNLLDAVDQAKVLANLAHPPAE
Method: as §2

PKCα = PKCα (Homo sapiens, UniProt P17252); experiment: Kinase selectivity profiling, Protein kinase C-α; assay type: biochemical; details: read-out: Percentage inhibition of PKCα
Method: as §2

HCT116 cells [3] = experiment: Cell cycle analysis by flow cytometry; assay type: cell-based, human; details: HCT116, 3 μM
Method: Cells were dissociated with Accutase, fixed with 70% EtOH at −20 °C, stained with Guava Cell Cycle reagent (Merck-Millipore) in accordance with the manufacturer's instructions, and analysed using a Guava easy Cyte HT flow cytometer (Merck-Millipore). Cell doublets were eliminated by doublet discrimination gating. Data were analyzed using FLOWJO version 10 software (Treestar; Fig. 3e). Experiments were performed in triplicate and repeated at least two times.

p38α = p38α (Homo sapiens, UniProt Q16539); experiment: Kinase selectivity profiling, Mitogen-activated protein kinase 14; assay type: biochemical; details: read-out: Percentage inhibition of p38α
Method: as §2

KDR = KDR (Homo sapiens, UniProt P35968); experiment: Kinase selectivity profiling, Kinase insert domain receptor; assay type: biochemical; details: read-out: Percentage inhibition of KDR
Method: as §2

SYK = SYK (Homo sapiens, UniProt P43405); experiment: Kinase selectivity profiling, Spleen tyrosine kinase; assay type: biochemical; details: read-out: Percentage inhibition of SYK
Method: as §2

SGK = SGK (Homo sapiens, UniProt O00141); experiment: Kinase selectivity profiling, Serum/glucocorticoid regulated kinase; assay type: biochemical; details: read-out: Percentage inhibition of SGK
Method: as §2

PIM1 = PIM1 (Homo sapiens, UniProt P11309); experiment: Kinase selectivity profiling, Pim-1 oncogene; assay type: biochemical; details: read-out: Percentage inhibition of PIM1
Sequence of PIM1 (P11309 whole entry): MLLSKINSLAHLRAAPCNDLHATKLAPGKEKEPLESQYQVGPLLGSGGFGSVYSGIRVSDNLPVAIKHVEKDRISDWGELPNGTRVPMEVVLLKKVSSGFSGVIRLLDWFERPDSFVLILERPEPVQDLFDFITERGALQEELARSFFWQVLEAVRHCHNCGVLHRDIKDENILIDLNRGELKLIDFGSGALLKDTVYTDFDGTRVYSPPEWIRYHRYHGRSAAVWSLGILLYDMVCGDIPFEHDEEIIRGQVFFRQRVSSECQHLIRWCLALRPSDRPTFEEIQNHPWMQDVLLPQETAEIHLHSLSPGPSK
Method: as §2

TSSK1 = TSSK1 (Homo sapiens, UniProt Q9BXA7); experiment: Kinase selectivity profiling, Testis-specific serine kinase 1; assay type: biochemical; details: read-out: Percentage inhibition of TSSK1
Sequence of TSSK1 (Q9BXA7 whole entry): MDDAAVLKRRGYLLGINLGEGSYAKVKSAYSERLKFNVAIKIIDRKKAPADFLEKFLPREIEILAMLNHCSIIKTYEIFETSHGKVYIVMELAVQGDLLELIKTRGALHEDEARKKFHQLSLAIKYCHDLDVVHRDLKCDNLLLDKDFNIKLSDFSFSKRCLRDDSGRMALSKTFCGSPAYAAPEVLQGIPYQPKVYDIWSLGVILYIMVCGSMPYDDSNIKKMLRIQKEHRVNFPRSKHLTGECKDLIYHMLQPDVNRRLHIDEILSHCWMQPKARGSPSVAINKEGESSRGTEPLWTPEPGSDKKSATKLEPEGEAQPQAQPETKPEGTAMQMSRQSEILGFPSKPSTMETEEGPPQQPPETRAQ
Method: as §2

O[C@H]1CC[C@@H](Oc2cccc3cnc(Nc4ccc5nc[nH]c5c4)nc23)CC1 [NCB-0846, cis-4-(2-(3H-benzo[d]imidazol-5-ylamino)quinazolin-8-yloxy)cyclohexanol]
Sphere-containing wells/total wells (HCT116 cells [1]; HCT116, 3-day treatment, 0.1μM, 1 cell per well): 60/96 | Sphere-containing wells/total wells (HCT116 cells [1]; HCT116, 3-day treatment, 0.1μM, 10 cells per well): 96/96 | Sphere-containing wells/total wells (HCT116 cells [1]; HCT116, 3-day treatment, 0.1μM, 100 cells per well): 96/96 | Sphere-containing wells/total wells (HCT116 cells [1]; HCT116, 3-day treatment, 0.3μM, 1 cell per well): 47/96 | Sphere-containing wells/total wells (HCT116 cells [1]; HCT116, 3-day treatment, 0.3μM, 10 cells per well): 96/96 | Sphere-containing wells/total wells (HCT116 cells [1]; HCT116, 3-day treatment, 0.3μM, 100 cells per well): 96/96 | Sphere-containing wells/total wells (HCT116 cells [1]; HCT116, 3-day treatment, 1.0μM, 1 cell per well): 3/96 | Sphere-containing wells/total wells (HCT116 cells [1]; HCT116, 3-day treatment, 1.0μM, 10 cells per well): 21/96 | Sphere-containing wells/total wells (HCT116 cells [1]; HCT116, 3-day treatment, 1.0μM, 100 cells per well): 95/96 | Sphere-containing wells/total wells (HCT116 cells [1]; HCT116, 4-day treatment, 0.1μM, 1 cell per well): 69/96 | Sphere-containing wells/total wells (HCT116 cells [1]; HCT116, 4-day treatment, 0.1μM, 10 cells per well): 96/96 | Sphere-containing wells/total wells (HCT116 cells [1]; HCT116, 4-day treatment, 0.1μM, 100 cells per well): 96/96 | Sphere-containing wells/total wells (HCT116 cells [1]; HCT116, 4-day treatment, 0.3μM, 1 cell per well): 41/96 | Sphere-containing wells/total wells (HCT116 cells [1]; HCT116, 4-day treatment, 0.3μM, 10 cells per well): 96/96 | Sphere-containing wells/total wells (HCT116 cells [1]; HCT116, 4-day treatment, 0.3μM, 100 cells per well): 96/96 | Sphere-containing wells/total wells (HCT116 cells [1]; HCT116, 4-day treatment, 1.0μM, 1 cell per well): 0/96 | Sphere-containing wells/total wells (HCT116 cells [1]; HCT116, 4-day treatment, 1.0μM, 10 cells per well): 19/96 | Sphere-containing wells/total wells (HCT116 cells [1]; HCT116, 4-day treatment, 1.0μM, 100 cells per well): 93/96 | sphere formation activity (HCT116 cells [1]; HCT116, short-term (3–4 days) treatment): significantly abrogated | inhibition at 0.1 µM (JNK2): 0.3% | Percentage inhibition of CDK2/CycA2 (CDK2/CycA2): > 80% and 101.1% | inhibition at 0.1 µM (MET): 42.1% | IC50 [2]: 680 nM | inhibition at 0.1 µM (TYRO3): 48.9% | inhibition at 0.1 µM (CK1ε): -2.8% | Sphere-containing wells/total wells (DLD-1 cells; DLD-1, 3-day treatment, 0.1 μM, 1 cell per well): 55/96 | Sphere-containing wells/total wells (DLD-1 cells; DLD-1, 3-day treatment, 0.1 μM, 10 cells per well): 95/96 | Sphere-containing wells/total wells (DLD-1 cells; DLD-1, 3-day treatment, 0.1 μM, 100 cells per well): 96/96 | Sphere-containing wells/total wells (DLD-1 cells; DLD-1, 3-day treatment, 0.3 μM, 1 cell per well): 23/96 | Sphere-containing wells/total wells (DLD-1 cells; DLD-1, 3-day treatment, 0.3 μM, 10 cells per well): 86/96 | Sphere-containing wells/total wells (DLD-1 cells; DLD-1, 3-day treatment, 0.3 μM, 100 cells per well): 96/96 | Sphere-containing wells/total wells (DLD-1 cells; DLD-1, 3-day treatment, 1.0 μM, 1 cell per well): 3/96 | Sphere-containing wells/total wells (DLD-1 cells; DLD-1, 3-day treatment, 1.0 μM, 10 cells per well): 25/96 | Sphere-containing wells/total wells (DLD-1 cells; DLD-1, 3-day treatment, 1.0 μM, 100 cells per well): 77/96 | Sphere-containing wells/total wells (DLD-1 cells; DLD-1, 4-day treatment, 0.1 μM, 1 cell per well): 39/96 | Sphere-containing wells/total wells (DLD-1 cells; DLD-1, 4-day treatment, 0.1 μM, 10 cells per well): 92/96 | Sphere-containing wells/total wells (DLD-1 cells; DLD-1, 4-day treatment, 0.1 μM, 100 cells per well): 96/96 | Sphere-containing wells/total wells (DLD-1 cells; DLD-1, 4-day treatment, 0.3 μM, 1 cell per well): 46/96 | Sphere-containing wells/total wells (DLD-1 cells; DLD-1, 4-day treatment, 0.3 μM, 10 cells per well): 90/96 | Sphere-containing wells/total wells (DLD-1 cells; DLD-1, 4-day treatment, 0.3 μM, 100 cells per well): 95/96 | Sphere-containing wells/total wells (DLD-1 cells; DLD-1, 4-day treatment, 1.0 μM, 1 cell per well): 7/96 | Sphere-containing wells/total wells (DLD-1 cells; DLD-1, 4-day treatment, 1.0 μM, 10 cells per well): 34/96 | Sphere-containing wells/total wells (DLD-1 cells; DLD-1, 4-day treatment, 1.0 μM, 100 cells per well): 96/96 | sphere formation activity (DLD-1 cells; DLD-1, short-term (3–4 days) treatment): significantly abrogated | inhibition at 0.1 µM (PYK2): 73% | inhibition at 0.1 µM (PKCα): -0.9% | >4N (%) (HCT116 cells [3]; 24 h): 6.1% | G0/G1 (%) (HCT116 cells [3]; 24 h): 20.6% | G2/M (%) (HCT116 cells [3]; 24 h): 30.6% | S (%) (HCT116 cells [3]; 24 h): 14.1% | SubG1 (%) (HCT116 cells [3]; 24 h): 28.6% | >4N (%) (HCT116 cells [3]; 48 h): 3.1% | G0/G1 (%) (HCT116 cells [3]; 48 h): 18.3% | G2/M (%) (HCT116 cells [3]; 48 h): 20.1% | S (%) (HCT116 cells [3]; 48 h): 11.1% | SubG1 (%) (HCT116 cells [3]; 48 h): 47.4% | inhibition at 0.1 µM (p38α): -3.5% | inhibition at 0.1 µM (KDR): 71.1% | inhibition at 0.1 µM (SYK): 7.6% | inhibition at 0.1 µM (SGK): 14.7% | inhibition at 0.1 µM (PIM1): -3.1% | inhibition at 0.1 µM (TSSK1): 5.8%

Reference: PMC5007443, “TNIK inhibition abrogates colorectal cancer stemness” (Nature Communications, 2016)
